Experimental data as given in ChEMBL document CHEMBL1154294, “An approach to the site-selective diversification of apoptolidin A with peptide-based catalysts” (J Nat Prod, 2009).

Assays:
[1] = Antiproliferative activity against Adenovirus type 12 E1A transformed rat 3Y1cells after 3 days by tetrazolium based cell counting assay; details: 72 h
[2] = Antiproliferative activity against rat 3Y1 cells after 3 days by tetrazolium based cell counting assay
[3] = target: ATP synthase subunit beta, mitochondrial (Saccharomyces cerevisiae S288c, UniProt P00830); test: Inhibition of yeast mitochondrial F0F1-ATPase
NCI-H292 = test: Cytotoxicity activity in human NCI-H292 cells after 48 hrs by thiazolyl blue tetrazolium bromide assay; assay type: functional, cell-based; details: NCI-H292, 48 h

Chain of ATP synthase subunit beta, mitochondrial (P00830 whole entry): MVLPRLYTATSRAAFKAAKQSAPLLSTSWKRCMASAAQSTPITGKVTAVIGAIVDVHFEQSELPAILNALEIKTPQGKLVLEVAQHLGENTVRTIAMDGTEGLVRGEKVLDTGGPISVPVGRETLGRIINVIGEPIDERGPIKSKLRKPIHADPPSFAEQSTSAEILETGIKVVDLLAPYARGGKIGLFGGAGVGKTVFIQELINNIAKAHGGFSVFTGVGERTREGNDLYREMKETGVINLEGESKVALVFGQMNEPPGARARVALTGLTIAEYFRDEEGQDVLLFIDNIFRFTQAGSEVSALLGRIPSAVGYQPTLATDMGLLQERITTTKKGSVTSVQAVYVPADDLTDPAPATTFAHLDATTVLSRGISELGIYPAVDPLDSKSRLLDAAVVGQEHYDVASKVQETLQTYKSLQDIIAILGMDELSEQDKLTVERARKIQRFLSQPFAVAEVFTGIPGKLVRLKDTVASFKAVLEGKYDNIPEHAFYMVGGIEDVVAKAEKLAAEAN

Structure (SMILES)	GI50 [1]	GI50 at 72 h [2]	IC50 [3]	EC50 (NCI-H292)
COC[C@@H](CC1O[C@@](O)([C@H](O)C2CC(=O)/C(C)=C/C(C)=C/C(C)=C/[C@@H](C)[C@H](O[C@@H]3O[C@@H](C)[C@H](OC)[C@@H](O)[C@@H]3O)/C=C/C(C)=C/CC[C@H](O)[C@@H](OC)C2)[C@H](C)[C@@H](O)[C@H]1C)O[C@H]1C[C@](C)(O)[C@@H](O[C@H]2C[C@@H](OC)[C@H](OC(C)=O)[C@@H](C)O2)[C@H](C)O1 (some centres not stated)	0.0098 µM	> 1 µM	0.8 µM	
COC[C@@H](CC1O[C@@](O)([C@H](O)C2CC(=O)/C(C)=C/C(C)=C/C(C)=C/[C@@H](C)[C@H](O[C@@H]3O[C@@H](C)[C@H](OC)[C@@H](O)[C@@H]3OC(C)=O)/C=C/C(C)=C/CC[C@H](O)[C@@H](OC)C2)[C@H](C)[C@@H](O)[C@H]1C)O[C@H]1C[C@](C)(O)[C@@H](O[C@H]2C[C@@H](OC)[C@H](O)[C@@H](C)O2)[C@H](C)O1 (some centres not stated)				0.06 µM
COC[C@@H](CC1O[C@@](O)([C@H](OC(C)=O)C2CC(=O)/C(C)=C/C(C)=C/C(C)=C/[C@@H](C)[C@H](O[C@@H]3O[C@@H](C)[C@H](OC)[C@@H](O)[C@@H]3O)/C=C/C(C)=C/CC[C@H](O)[C@@H](OC)C2)[C@H](C)[C@@H](O)[C@H]1C)O[C@H]1C[C@](C)(O)[C@@H](O[C@H]2C[C@@H](OC)[C@H](O)[C@@H](C)O2)[C@H](C)O1 (some centres not stated)	0.011 µM	> 1 µM	1.1 µM	
COC[C@@H](CC1O[C@@](O)([C@H](OC(C)=O)C2CC(=O)/C(C)=C/C(C)=C/C(C)=C/[C@@H](C)[C@H](O[C@@H]3O[C@@H](C)[C@H](OC)[C@@H](OC(C)=O)[C@@H]3OC(C)=O)/C=C/C(C)=C/CC[C@H](O)[C@@H](OC)C2)[C@H](C)[C@@H](O)[C@H]1C)O[C@H]1C[C@](C)(O)[C@@H](O[C@H]2C[C@@H](OC)[C@H](O)[C@@H](C)O2)[C@H](C)O1 (some centres not stated)				0.048 µM
COC[C@@H](CC1O[C@@](O)([C@H](OC)C2CC(=O)/C(C)=C/C(C)=C/C(C)=C/[C@@H](C)[C@H](O[C@@H]3O[C@@H](C)[C@H](OC)[C@@H](O)[C@@H]3O)/C=C/C(C)=C/CC[C@H](O)[C@@H](OC)C2)[C@H](C)[C@@H](O)[C@H]1C)O[C@H]1C[C@](C)(O)[C@@H](O[C@H]2C[C@@H](OC)[C@H](O)[C@@H](C)O2)[C@H](C)O1 (some centres not stated)	0.012 µM	> 1 µM	2.8 µM	
COC[C@@H](CC1O[C@@](O)([C@H](OC(C)=O)C2CC(=O)/C(C)=C/C(C)=C/C(C)=C/[C@@H](C)[C@H](O[C@@H]3O[C@@H](C)[C@H](OC)[C@@H](O)[C@@H]3OC(C)=O)/C=C/C(C)=C/CC[C@H](O)[C@@H](OC)C2)[C@H](C)[C@@H](O)[C@H]1C)O[C@H]1C[C@](C)(O)[C@@H](O[C@H]2C[C@@H](OC)[C@H](OC(C)=O)[C@@H](C)O2)[C@H](C)O1 (some centres not stated)				0.048 µM
COC[C@@H](CC1O[C@@](O)([C@H](O)C2CC(=O)/C(C)=C/C(C)=C/C(C)=C/[C@@H](C)[C@H](O[C@@H]3O[C@@H](C)[C@H](OC)[C@@H](O)[C@@H]3OC(=O)c3ccccc3)/C=C/C(C)=C/CC[C@H](O)[C@@H](OC)C2)[C@H](C)[C@@H](O)[C@H]1C)O[C@H]1C[C@](C)(O)[C@@H](O[C@H]2C[C@@H](OC)[C@H](O)[C@@H](C)O2)[C@H](C)O1 (some centres not stated)	0.0036 µM	> 1 µM	0.3 µM	
COC[C@@H](CC1O[C@@](O)([C@H](O)C2CC(=O)/C(C)=C/C(C)=C/C(C)=C/[C@@H](C)[C@H](O[C@@H]3O[C@@H](C)[C@H](OC)[C@@H](O)[C@@H]3O)/C=C/C(C)=C/CC[C@H](OC(C)=O)[C@@H](OC)C2)[C@H](C)[C@@H](O)[C@H]1C)O[C@H]1C[C@](C)(O)[C@@H](O[C@H]2C[C@@H](OC)[C@H](O)[C@@H](C)O2)[C@H](C)O1 (some centres not stated)	0.056 µM	> 1 µM	0.8 µM	
COC[C@@H](CC1O[C@@](O)([C@H](O)C2CC(=O)/C(C)=C/C(C)=C/C(C)=C/[C@@H](C)[C@H](O[C@@H]3O[C@@H](C)[C@H](OC)[C@@H](OC(C)=O)[C@@H]3O)/C=C/C(C)=C/CC[C@H](O)[C@@H](OC)C2)[C@H](C)[C@@H](O)[C@H]1C)O[C@H]1C[C@](C)(O)[C@@H](O[C@H]2C[C@@H](OC)[C@H](O)[C@@H](C)O2)[C@H](C)O1 (some centres not stated)	0.0027 µM	> 1 µM	0.4 µM	
COC[C@@H](CC1O[C@@](O)([C@H](O)C2CC(=O)/C(C)=C/C(C)=C/C(C)=C/[C@@H](C)[C@H](O[C@@H]3O[C@@H](C)[C@H](OC)[C@@H](O)[C@@H]3O)/C=C/C(C)=C/CC[C@H](O)[C@@H](OC)C2)[C@H](C)[C@@H](OC(C)=O)[C@H]1C)O[C@H]1C[C@](C)(O)[C@@H](O[C@H]2C[C@@H](OC)[C@H](OC(C)=O)[C@@H](C)O2)[C@H](C)O1 (some centres not stated)	0.0095 µM	> 0.6 µM	0.4 µM	
COC[C@@H](CC1O[C@@](O)([C@@H]2OC(=O)/C(C)=C/C(C)=C/C(C)=C/[C@@H](C)[C@H](O[C@@H]3O[C@@H](C)[C@H](OC)[C@@H](O)[C@@H]3O)/C=C/C(C)=C/CC[C@H](O)[C@@H](OC)C[C@@H]2O)[C@H](C)[C@@H](O)[C@H]1C)O[C@H]1C[C@](C)(O)[C@@H](O[C@H]2C[C@@H](OC)[C@H](O)[C@@H](C)O2)[C@H](C)O1 (some centres not stated) [ISOAPOPTOLIDIN]	0.009 µM	> 1 µM	17 µM	
